From ChEMBL document CHEMBL1201862, “PubChem BioAssay data set” (2004)
Active and inactive are the calls of the source.

Assays:
[1] = target: Glyceraldehyde-3-phosphate dehydrogenase (Homo sapiens, UniProt P04406)
[2] = target: T1, Leucine aminopeptidase (Plasmodium falciparum 3D7, UniProt Q8IL11); assay: P. falciparum M17LAP inhibitors, primary screen, biochemical, fluorogenic H-Leu-NHMec substrate, 1536-well (AID 1619); format: functional
T1 sequence (Q8IL11 whole entry): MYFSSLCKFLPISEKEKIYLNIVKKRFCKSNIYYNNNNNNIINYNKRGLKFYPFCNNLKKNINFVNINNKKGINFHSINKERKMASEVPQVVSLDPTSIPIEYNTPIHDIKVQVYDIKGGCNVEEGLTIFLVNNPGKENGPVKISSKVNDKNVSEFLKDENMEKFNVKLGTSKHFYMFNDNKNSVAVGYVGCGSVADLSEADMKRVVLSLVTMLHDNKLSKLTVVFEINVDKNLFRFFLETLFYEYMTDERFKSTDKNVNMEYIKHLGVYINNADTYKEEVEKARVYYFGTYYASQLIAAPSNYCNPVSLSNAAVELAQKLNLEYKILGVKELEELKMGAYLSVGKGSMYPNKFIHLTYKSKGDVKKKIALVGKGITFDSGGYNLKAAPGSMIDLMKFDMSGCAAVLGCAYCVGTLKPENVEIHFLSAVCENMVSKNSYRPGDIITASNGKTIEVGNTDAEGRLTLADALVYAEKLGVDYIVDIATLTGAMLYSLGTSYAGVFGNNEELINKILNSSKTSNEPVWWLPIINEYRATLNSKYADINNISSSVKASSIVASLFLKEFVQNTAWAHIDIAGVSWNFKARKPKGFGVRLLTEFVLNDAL

[3] = HEK293T cytotoxicity, dose response, cytotoxicity control for miR-122 modulator project, cell-based, inhibitor set, cherry-pick, set 2 (AID 720697); format: functional
[4] = A cytotoxicity screen of small molecule inhibitors of the PhoP region in Salmonella typhi identified in the primary screen. [Related pubchem assays: 1850, 1864, 1985 ]; format: functional
[5] = tested on: Vero; assay: host cell cytotoxicity of antiviral hits, dose response, cytotoxicity control for West Nile virus antiviral project, secondary assay (AID 1650); format: functional; details: Chlorocebus sabaeus
[6] = target: Estrogen receptor beta (Homo sapiens, UniProt Q92731); assay: ERβ–SRC-3 coactivator interaction inhibitors, confirmation, orthogonal assay, biochemical, ELISA, streptavidin-HRP readout (AID 1060)
[7] = target: T2, Polyadenylate-binding protein 1 (Homo sapiens, UniProt P11940); assay: PABP1 MLLE–PAM2 interaction inhibitors, dose response, miRNA deadenylation inhibitor project, biochemical, fluorescence polarization, Cy5-PAM2 peptide, secondary (AID 602260); format: functional; details: read-out: IC50_Mean
[8] = target: T2, Polyadenylate-binding protein 1; assay: PABP1 MLLE–PAM2 binding inhibitor potency, dose response, biochemical, fluorescence polarization, FITC-PAM2 peptide (AID 602259); format: functional; details: read-out: IC50_Mean
[9] = Luminescence Cell-Based Dose Response HTS to Identify Inhibitors of 5'UTR Stem-Loop Driven Prion Protein mRNA Translation in H4 Neuroglioblastoma Cells. [Related pubchem assays: 1827 (Project Summary), 1813 (Primary HTS)]; format: functional
[10] = inhibitors of firefly luciferase expression or activity, dose response, H4 neuroglioma cells, luminescence (AID 1990); format: functional, cell-based
[11] = inhibitors of SNCA 5'UTR-driven reporter translation, confirmation, H4 neuroglioma cells, luminescence (AID 1988); format: functional, cell-based
[12] = target: G-protein coupled receptor 55 (Homo sapiens, UniProt Q9Y2T6); assay: GPR55 antagonists blocking LPI-driven arrestin recruitment, primary screen, imaging, U2OS, beta-arrestin-GFP, LPI agonist (AID 2013); format: functional;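 further: antagonist potency measured as reduced agonist-driven arrestin aggregation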
[13] = HEp-2 cell cytotoxicity, dose response, cytotoxicity control for RSV inhibitor project, HTS (AID 2410); format: functional; details: human respiratory syncytial virus
[14] = target: T3, Protein RecA (Mycobacterium tuberculosis, UniProt P9WHJ3); assay: Fluorescence Cell-Free Homogeneous Dose Retest to Identify Inhibitors of RecA-Intein Splicing Activity. [Related pubchem assays (depositor defined):AID2097, AID2223, AID489010, AID492950]; format: functional
T3 sequence (P9WHJ3 whole entry): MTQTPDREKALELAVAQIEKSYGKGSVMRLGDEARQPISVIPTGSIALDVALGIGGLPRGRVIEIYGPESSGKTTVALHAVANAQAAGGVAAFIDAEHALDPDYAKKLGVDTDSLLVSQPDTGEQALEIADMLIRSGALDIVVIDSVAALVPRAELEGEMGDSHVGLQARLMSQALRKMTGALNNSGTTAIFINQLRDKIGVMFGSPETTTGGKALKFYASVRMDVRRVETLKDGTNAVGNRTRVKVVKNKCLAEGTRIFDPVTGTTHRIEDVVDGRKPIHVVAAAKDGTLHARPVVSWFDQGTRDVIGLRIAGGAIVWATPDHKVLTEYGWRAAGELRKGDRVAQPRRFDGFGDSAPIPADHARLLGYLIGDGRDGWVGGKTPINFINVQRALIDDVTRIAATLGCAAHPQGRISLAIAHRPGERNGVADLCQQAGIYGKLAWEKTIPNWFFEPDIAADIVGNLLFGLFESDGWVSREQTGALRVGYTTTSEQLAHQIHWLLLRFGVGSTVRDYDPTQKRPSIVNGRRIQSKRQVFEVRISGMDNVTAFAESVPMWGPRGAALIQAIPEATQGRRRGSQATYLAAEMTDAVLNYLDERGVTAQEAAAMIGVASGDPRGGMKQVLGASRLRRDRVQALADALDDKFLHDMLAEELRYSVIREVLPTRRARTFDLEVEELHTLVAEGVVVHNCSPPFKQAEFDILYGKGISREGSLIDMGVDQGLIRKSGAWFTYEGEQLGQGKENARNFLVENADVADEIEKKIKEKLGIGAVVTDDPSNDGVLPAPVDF

[15] = target: Genome polyprotein (dengue virus type 2, UniProt P29990); assay: Dengue-2 NS5 methyltransferase inhibitors, primary screen, biochemical, confirmation dose response (AID 588689); format: functional
[16] = target: T4, Replicative DNA helicase DnaB (Mycobacterium tuberculosis, UniProt P9WMR3); assay: DnaB intein splicing inhibitors, dose response, biochemical, cell-free fluorescence (AID 449749); format: functional
T4 sequence (P9WMR3 whole entry): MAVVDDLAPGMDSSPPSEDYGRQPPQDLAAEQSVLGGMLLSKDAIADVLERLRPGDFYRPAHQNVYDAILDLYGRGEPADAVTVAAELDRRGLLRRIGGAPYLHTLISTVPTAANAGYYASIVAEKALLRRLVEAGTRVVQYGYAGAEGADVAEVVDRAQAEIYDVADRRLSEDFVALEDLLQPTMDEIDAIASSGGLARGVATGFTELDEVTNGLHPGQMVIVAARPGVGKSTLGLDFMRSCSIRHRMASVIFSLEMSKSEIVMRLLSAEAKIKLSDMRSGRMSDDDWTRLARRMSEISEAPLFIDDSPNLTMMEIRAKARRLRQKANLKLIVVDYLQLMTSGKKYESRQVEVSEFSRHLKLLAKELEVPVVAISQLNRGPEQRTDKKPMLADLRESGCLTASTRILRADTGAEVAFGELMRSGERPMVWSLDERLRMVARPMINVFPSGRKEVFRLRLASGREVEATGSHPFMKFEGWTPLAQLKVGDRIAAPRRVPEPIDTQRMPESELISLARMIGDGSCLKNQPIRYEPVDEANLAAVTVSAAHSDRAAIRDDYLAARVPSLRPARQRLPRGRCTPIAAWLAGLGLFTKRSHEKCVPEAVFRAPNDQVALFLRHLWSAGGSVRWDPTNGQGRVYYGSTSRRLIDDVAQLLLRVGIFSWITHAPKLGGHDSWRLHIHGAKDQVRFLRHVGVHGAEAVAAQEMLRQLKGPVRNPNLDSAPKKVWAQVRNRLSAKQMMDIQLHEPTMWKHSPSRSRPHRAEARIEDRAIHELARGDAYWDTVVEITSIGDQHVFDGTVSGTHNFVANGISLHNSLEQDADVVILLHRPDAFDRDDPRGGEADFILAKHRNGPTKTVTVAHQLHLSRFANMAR

[17] = target: T5, Histone-lysine N-methyltransferase NSD2 (Homo sapiens, UniProt O96028); format: biochemical
T5 sequence (O96028 whole entry): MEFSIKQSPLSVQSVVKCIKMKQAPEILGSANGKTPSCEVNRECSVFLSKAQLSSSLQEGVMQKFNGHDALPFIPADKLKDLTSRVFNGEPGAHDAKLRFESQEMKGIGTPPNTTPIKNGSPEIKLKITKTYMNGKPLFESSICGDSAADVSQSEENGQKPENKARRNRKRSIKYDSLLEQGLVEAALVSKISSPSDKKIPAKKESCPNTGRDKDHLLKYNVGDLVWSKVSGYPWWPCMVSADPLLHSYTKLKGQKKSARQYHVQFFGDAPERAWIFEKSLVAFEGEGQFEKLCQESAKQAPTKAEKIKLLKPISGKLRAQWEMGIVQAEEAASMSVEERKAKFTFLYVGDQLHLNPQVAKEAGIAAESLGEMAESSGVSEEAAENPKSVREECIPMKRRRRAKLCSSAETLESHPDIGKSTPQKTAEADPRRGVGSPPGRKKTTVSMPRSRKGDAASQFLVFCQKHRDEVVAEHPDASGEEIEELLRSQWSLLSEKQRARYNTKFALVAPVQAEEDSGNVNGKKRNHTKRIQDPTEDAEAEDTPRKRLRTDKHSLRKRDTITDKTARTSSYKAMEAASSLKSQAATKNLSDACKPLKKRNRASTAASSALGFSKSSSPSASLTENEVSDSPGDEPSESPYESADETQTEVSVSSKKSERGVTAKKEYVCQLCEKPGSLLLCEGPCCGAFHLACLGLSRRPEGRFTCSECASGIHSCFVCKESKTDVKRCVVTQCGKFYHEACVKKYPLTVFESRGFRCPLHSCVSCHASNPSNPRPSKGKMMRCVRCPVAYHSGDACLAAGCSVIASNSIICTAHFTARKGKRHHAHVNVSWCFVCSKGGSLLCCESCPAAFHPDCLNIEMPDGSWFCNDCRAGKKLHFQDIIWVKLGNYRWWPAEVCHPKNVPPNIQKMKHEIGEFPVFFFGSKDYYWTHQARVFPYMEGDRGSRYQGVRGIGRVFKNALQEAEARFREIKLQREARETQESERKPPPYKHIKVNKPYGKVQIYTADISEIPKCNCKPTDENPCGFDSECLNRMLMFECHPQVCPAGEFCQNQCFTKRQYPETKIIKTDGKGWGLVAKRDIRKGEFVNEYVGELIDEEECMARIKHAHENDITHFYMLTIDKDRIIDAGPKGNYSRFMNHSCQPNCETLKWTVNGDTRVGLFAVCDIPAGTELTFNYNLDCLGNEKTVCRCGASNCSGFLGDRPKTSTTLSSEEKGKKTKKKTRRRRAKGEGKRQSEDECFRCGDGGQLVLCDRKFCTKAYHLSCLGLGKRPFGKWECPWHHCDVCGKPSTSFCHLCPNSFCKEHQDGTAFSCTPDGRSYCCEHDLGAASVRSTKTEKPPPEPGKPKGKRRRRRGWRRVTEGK

[18] = target: T6, DNA repair protein RAD52 homolog (Homo sapiens, UniProt P43351); format: functional, biochemical
T6 sequence (P43351 whole entry): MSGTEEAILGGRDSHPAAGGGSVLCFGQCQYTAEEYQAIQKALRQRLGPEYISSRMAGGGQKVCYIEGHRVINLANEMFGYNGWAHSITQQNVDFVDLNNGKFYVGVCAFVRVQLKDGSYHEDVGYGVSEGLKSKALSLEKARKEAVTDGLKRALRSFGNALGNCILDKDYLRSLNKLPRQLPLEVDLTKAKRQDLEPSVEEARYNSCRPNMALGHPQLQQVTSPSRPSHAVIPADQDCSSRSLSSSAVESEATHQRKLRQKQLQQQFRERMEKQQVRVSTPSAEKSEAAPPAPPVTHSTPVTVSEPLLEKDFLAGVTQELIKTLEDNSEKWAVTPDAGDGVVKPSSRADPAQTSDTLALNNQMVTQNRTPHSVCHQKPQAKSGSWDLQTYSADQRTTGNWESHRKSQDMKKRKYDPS

Sequence of Estrogen receptor beta (Q92731 whole entry): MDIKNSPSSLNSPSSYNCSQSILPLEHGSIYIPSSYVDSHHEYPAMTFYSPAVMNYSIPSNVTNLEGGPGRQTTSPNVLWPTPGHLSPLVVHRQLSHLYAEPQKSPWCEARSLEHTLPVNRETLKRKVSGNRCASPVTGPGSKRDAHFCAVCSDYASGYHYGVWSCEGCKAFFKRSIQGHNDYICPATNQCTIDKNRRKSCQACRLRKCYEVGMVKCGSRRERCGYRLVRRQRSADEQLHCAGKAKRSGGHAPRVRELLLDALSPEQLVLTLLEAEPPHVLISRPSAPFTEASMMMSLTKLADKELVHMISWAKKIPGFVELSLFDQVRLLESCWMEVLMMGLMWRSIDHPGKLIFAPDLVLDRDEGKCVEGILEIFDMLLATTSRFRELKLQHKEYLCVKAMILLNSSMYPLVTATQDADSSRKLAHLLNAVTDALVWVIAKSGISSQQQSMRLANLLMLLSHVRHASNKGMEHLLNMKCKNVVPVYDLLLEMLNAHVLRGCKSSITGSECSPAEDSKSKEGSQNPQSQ
Sequence of Glyceraldehyde-3-phosphate dehydrogenase (P04406 whole entry): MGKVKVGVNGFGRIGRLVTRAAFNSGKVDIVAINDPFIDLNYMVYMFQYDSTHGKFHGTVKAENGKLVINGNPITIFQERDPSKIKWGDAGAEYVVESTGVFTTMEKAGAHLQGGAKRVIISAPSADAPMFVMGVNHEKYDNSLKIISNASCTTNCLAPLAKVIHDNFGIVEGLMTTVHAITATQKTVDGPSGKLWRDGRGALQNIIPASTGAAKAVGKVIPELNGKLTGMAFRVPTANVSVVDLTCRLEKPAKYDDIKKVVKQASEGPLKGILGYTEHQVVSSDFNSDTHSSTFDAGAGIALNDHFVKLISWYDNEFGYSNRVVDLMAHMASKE
Sequence of G-protein coupled receptor 55 (Q9Y2T6 whole entry): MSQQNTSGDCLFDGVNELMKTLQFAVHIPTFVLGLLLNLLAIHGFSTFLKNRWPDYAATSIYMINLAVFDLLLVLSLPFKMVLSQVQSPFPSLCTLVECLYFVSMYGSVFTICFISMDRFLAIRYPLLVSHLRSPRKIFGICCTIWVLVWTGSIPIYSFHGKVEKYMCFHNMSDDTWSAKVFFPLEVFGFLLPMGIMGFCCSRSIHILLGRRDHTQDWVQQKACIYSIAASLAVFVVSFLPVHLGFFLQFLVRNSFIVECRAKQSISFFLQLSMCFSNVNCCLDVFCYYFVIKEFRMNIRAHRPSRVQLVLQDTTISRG
T2 sequence (P11940 whole entry): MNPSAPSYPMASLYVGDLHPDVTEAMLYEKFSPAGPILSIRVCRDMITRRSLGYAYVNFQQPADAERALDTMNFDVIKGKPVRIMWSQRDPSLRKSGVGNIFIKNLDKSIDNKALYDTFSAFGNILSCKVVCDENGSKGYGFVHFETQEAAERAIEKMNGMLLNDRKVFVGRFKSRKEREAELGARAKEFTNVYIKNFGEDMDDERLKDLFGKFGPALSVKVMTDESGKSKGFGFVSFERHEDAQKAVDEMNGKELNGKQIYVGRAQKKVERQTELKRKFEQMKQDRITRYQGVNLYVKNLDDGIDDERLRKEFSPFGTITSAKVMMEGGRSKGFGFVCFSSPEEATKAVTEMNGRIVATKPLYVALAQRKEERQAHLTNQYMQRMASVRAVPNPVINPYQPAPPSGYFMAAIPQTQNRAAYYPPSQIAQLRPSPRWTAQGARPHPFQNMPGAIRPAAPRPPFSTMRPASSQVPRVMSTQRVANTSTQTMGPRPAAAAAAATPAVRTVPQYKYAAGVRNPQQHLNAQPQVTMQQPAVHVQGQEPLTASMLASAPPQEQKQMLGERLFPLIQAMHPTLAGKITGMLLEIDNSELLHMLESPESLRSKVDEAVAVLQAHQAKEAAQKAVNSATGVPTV
Sequence of Genome polyprotein (P29990 2492-3391 limits assumed): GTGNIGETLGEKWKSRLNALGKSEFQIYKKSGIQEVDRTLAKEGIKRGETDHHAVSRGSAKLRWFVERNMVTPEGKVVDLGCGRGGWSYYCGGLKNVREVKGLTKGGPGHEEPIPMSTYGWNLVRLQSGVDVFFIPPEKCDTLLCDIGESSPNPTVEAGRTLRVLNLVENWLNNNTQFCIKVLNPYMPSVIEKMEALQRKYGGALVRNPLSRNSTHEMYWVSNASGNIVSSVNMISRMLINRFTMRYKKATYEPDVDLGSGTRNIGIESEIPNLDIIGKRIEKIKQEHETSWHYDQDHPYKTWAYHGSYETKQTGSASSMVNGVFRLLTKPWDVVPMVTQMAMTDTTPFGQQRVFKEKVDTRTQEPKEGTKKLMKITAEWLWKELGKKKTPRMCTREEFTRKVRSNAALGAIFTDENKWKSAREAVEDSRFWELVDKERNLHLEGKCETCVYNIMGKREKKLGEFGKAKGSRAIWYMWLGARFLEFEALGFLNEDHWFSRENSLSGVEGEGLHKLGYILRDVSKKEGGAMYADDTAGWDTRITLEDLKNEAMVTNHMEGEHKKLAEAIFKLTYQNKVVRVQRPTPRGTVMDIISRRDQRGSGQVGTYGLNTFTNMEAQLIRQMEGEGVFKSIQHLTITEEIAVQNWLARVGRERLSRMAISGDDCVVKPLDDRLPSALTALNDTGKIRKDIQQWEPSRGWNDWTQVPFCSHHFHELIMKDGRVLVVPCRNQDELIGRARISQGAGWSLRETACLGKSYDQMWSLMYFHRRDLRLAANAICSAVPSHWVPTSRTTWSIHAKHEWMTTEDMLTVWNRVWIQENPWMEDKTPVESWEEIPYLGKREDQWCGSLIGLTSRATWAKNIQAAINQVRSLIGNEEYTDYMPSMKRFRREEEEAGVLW

In the case of `O=C1C(Cl)=C(N2CCN(c3ccccc3)CC2)C(=O)N1c1ccc(C(F)(F)F)cc1`, the IC50 [1] is reported as > 50 µM (inconclusive).
In the case of `O=C(O)COc1ccc(Br)cc1/C=C1/SC(=O)N(CC(=O)N2CCCC2)C1=O`, the IC50 [2] is reported as 34.8 µM (active).
In the case of `Cc1ccc(C(=O)Nc2nc(=O)n(C(=O)CC(C)C)s2)cc1`, the IC50 [2] is reported as 24.5 µM (active).
With `COCC(=O)NC[C@H]1[C@@H](c2ccc(C3=CCCC3)cc2)[C@@H](CO)N1C(=O)C1CC1` the AC50 [3] was 9.14 µM (active).
With `COc1ccc(-n2cnc3c(sc4nc(N5CCOCC5)c5c(c43)CCCC5)c2=O)cc1` the EC50 [4] was > 50 µM (active).
With `O=C(Nc1ccc(Cl)cc1-c1nc2ccccc2s1)c1ccco1` the CC50 [5] was 13.3 µM (active).
For `CCn1cc(-c2cc(C(F)(F)F)n3nc(C(=O)O)cc3n2)c(C)n1`, the IC50 [6] was 3.41 µM (not active).
For `Cc1nnc(N2C(=O)c3oc4ccccc4c(=O)c3C2c2ccco2)s1` (configuration not stated), the IC50 [6] was 0.0501 µM (not active), the IC50 [7] was > 66 µM (inactive) and the IC50 [8] was > 66 µM (inactive).
With `CN1CCN(c2nc3ccccc3nc2C(C#N)S(=O)(=O)c2ccccc2)CC1` (configuration not stated) the EC50 [9] was > 120 µM (not active), the EC50 [10] was > 120 µM (not active) and the EC50 [11] was 18.8 µM (active). The CC50 [5] was 4.16 µM (active).
In the case of `O=C(c1ccccc1)N1N=C(c2cccs2)CC1c1ccccc1O` (configuration not stated), the IC50 [12] is reported as 2.72 µM (active).
With `Cc1ccc(C)c(Nc2cc(C)nc3ccccc23)c1` the CC50 [13] was 16.9 µM (active) and the EC50 [4] was > 50 µM (active).
For `COc1ccc(Br)cc1S(=O)(=O)Nc1cnc2ccccc2c1`, the IC50 [1] was > 100 µM (not active).
For `CSc1nnc(-c2sccc2OCc2ccccc2)n1C`, the IC50 [12] was 2.71 µM (active).
In the case of `Cc1[nH]n(-c2ccccc2)c(=O)c1C(c1cccc([N+](=O)[O-])c1O)c1c(C)[nH]n(-c2ccccc2)c1=O`, the EC50 [14] is reported as 0.931 µM (active), the IC50 [15] is reported as 31.6 µM (active) and the EC50 [4] is reported as > 50 µM (active). The AC50 [16] was 1.15 µM (active).
With `O=C(O)CC/C(=N/NC(=O)c1cccs1)c1ccccc1` the IC50 [2] was 36 µM (active).
For `Cc1cc(C)nc(SCC(=O)Nc2sc3c(c2C#N)CCC(C)C3)n1` (configuration not stated), the EC50 [4] was > 50 µM (active).
With `CCCN(CCC)CCCN=C(S)Nc1ccc2nc(N3CCN(CC)CC3)cc(C)c2c1` the AC50 [17] was > 20 µM (inactive) and the AC50 [18] was 5.26 µM (active).
